Measurements taken from ChEMBL document CHEMBL2074297, “Identification of phalloidin uptake systems of rat and human liver” (Biochim Biophys Acta, 2004).
Starred links: 1 amine or outer side, 2 acyl side, 3 side chain; linkers in the order of their positions; H or OH if unused. Positions of bridges follow the written chain, without caps; N, C: chain ends. Non-standard residues stand in square brackets, D forms with d. Residues, ends and D or L forms follow the SMILES beside them. Trp(2-yl) = O=C([C@H](Cc1c([*:3])[nH]c2ccccc12)N[*:1])[*:2]; Leu(4R-OH,5-OH) = C[C@](O)(CO)C[C@H](N)C(=O)O; cisHyp = O=C(O)[C@@H]1C[C@H](O)CN1

Tests used:
[1] = target: T1, Solute carrier organic anion transporter family member 1A1 (Rattus norvegicus, UniProt P46720); experiment: (§1) TP_TRANSPORTER: uptake in Xenopus laevis oocytes; assay type: functional, cell-based; settings: oocyte
T1 sequence (P46720 whole entry): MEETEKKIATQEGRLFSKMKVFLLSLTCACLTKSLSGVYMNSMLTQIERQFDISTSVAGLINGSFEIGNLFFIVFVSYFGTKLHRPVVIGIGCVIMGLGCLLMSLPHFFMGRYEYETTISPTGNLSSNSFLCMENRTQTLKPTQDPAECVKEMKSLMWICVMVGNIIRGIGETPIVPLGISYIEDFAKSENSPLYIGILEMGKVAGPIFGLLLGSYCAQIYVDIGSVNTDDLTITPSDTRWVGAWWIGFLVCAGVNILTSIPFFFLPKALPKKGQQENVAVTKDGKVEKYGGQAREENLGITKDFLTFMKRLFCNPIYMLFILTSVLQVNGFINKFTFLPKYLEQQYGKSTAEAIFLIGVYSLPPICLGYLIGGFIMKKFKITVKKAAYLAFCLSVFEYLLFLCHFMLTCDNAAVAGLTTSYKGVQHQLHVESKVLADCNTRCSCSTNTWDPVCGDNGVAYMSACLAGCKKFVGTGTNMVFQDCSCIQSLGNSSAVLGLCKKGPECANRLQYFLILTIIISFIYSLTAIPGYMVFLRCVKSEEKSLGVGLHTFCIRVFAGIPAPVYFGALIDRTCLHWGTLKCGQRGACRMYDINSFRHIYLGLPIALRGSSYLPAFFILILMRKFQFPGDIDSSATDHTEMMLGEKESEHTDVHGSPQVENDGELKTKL

[2] = target: T2, Hepatic sodium/bile acid cotransporter (Rattus norvegicus, UniProt P26435); experiment: as §1; assay type: functional, cell-based; settings: oocyte
T2 sequence (P26435 whole entry): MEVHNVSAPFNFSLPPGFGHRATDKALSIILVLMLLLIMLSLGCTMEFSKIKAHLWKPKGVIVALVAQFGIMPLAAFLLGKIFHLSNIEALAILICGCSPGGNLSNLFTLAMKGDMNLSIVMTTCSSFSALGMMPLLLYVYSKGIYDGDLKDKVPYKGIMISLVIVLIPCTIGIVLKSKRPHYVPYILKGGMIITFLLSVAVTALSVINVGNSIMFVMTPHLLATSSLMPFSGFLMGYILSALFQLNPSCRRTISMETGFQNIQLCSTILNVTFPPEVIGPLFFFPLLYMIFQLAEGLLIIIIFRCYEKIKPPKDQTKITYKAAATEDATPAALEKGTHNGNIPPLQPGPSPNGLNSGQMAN

[3] = target: T3, Solute carrier organic anion transporter family member 1A4 (Rattus norvegicus, UniProt O35913); experiment: as §1; assay type: functional, cell-based; settings: oocyte
T3 sequence (O35913 whole entry): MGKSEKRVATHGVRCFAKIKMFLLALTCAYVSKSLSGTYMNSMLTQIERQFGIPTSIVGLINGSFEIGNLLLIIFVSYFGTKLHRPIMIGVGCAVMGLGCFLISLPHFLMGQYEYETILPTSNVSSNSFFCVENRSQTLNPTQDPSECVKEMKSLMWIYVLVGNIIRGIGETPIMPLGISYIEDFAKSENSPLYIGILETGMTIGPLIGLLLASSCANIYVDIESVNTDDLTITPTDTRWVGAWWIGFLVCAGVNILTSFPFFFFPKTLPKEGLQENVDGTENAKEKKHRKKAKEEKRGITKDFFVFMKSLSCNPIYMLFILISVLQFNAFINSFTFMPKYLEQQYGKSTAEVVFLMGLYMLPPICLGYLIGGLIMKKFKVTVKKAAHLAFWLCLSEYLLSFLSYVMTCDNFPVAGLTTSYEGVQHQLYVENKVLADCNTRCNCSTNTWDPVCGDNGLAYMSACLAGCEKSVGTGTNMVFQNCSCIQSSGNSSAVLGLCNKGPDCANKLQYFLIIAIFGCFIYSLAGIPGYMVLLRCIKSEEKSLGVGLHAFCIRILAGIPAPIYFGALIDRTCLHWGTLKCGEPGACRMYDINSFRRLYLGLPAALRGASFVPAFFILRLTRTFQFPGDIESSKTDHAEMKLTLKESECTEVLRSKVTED

[4] = target: T4, Solute carrier organic anion transporter family member 2B1 (Homo sapiens, UniProt O94956); experiment: as §1; assay type: functional, cell-based; settings: oocyte
T4 sequence (O94956 whole entry): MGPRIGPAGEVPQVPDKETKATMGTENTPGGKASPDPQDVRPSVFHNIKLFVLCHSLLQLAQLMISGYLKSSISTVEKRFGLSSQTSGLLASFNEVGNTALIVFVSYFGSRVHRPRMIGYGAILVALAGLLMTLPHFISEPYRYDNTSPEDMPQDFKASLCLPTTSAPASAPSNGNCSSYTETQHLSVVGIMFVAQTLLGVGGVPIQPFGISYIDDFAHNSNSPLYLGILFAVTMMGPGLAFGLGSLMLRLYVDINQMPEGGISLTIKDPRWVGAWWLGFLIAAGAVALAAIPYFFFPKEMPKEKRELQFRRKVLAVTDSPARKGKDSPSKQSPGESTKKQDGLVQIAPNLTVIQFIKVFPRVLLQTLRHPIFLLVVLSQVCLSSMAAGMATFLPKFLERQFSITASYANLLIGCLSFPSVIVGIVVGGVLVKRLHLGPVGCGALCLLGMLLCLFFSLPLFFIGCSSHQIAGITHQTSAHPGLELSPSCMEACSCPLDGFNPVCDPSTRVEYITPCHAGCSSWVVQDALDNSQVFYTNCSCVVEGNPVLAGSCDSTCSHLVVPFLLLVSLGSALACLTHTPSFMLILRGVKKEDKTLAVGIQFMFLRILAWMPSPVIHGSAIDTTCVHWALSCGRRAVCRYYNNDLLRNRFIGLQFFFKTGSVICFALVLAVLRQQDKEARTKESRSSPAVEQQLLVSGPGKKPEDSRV

[5] = target: T5, Solute carrier organic anion transporter family member 1B3 (OATP1B3) (Homo sapiens, UniProt Q9NPD5); experiment: as §1; assay type: functional, cell-based, Oocyte; settings: Xenopus laevis oocytes expressing the transporter
T5 sequence (Q9NPD5 whole entry): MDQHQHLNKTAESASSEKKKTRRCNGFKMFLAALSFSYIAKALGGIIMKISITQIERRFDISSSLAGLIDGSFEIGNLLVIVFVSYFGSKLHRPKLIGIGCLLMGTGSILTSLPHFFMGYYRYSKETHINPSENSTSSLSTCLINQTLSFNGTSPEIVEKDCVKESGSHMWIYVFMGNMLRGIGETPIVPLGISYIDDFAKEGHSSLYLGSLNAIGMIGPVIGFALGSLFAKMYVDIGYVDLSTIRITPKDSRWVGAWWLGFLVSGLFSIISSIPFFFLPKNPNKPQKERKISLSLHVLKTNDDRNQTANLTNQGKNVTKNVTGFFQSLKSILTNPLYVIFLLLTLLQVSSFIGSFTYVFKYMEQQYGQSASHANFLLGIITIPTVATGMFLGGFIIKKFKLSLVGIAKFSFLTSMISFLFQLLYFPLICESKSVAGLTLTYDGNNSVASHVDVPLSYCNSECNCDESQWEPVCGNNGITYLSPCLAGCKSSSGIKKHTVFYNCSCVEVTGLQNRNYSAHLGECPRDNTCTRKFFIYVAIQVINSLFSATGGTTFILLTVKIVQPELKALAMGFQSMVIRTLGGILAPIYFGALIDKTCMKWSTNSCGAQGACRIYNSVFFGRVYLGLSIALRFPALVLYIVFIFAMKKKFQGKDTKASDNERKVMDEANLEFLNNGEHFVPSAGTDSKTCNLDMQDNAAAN

[6] = target: T6, Solute carrier organic anion transporter family member 1B1 (OATP1B1) (Homo sapiens, UniProt Q9Y6L6); experiment: as §1; assay type: functional, cell-based, Oocyte; settings: Xenopus laevis oocytes expressing the transporter
T6 sequence (Q9Y6L6 whole entry): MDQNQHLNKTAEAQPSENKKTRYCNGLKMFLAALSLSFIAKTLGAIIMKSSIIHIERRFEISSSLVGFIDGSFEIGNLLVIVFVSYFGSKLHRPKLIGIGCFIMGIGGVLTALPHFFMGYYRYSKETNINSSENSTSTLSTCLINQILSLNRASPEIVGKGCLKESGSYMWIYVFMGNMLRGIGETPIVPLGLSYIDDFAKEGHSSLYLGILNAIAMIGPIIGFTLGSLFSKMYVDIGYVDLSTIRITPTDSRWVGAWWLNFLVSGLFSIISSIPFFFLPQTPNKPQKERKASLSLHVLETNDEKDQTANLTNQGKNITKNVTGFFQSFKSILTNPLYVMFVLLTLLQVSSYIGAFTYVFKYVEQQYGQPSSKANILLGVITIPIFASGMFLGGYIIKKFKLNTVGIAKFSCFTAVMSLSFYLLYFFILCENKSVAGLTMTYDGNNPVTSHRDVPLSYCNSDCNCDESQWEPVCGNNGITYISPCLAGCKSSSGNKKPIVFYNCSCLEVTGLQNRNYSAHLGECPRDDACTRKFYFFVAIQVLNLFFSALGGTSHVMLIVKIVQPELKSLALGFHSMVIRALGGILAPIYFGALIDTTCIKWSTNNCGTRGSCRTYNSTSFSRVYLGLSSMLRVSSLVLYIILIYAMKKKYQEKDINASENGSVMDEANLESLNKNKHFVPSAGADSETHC

[7] = target: T7, Solute carrier organic anion transporter family member 1B2 (OATP1B2) (Rattus norvegicus, UniProt Q9QZX8); experiment: as §1; assay type: functional, cell-based, Oocyte; settings: Xenopus laevis oocytes expressing the transporter
T7 sequence (Q9QZX8 whole entry): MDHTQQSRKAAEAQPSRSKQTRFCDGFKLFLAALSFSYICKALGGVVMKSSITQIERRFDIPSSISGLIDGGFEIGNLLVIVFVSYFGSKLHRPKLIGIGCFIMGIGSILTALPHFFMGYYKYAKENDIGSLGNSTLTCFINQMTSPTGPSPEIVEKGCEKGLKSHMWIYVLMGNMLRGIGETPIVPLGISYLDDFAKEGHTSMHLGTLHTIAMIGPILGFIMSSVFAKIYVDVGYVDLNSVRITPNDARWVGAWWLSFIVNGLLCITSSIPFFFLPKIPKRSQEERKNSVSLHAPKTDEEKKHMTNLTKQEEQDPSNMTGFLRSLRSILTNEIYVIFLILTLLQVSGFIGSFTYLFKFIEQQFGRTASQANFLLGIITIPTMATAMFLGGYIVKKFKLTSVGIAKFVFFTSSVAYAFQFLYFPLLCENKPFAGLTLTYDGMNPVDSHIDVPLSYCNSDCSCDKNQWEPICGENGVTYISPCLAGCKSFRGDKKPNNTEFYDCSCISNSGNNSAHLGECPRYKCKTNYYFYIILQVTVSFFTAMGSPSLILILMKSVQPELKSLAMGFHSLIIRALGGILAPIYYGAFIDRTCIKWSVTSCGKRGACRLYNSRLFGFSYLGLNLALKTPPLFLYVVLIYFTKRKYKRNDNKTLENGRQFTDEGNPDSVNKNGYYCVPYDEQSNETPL

[8] = target: T1, Solute carrier organic anion transporter family member 1A1; experiment: (§2) TP_TRANSPORTER: inhibition of taurocholate uptake (taurocholate: 10 uM) in Xenopus laevis oocytes; assay type: functional, cell-based; settings: oocyte
[9] = target: T2, Hepatic sodium/bile acid cotransporter; experiment: as §2; assay type: functional, cell-based; settings: oocyte
[10] = target: T8, Solute carrier organic anion transporter family member 1B2 (Rattus norvegicus, UniProt Q9QZX8); experiment: as §2; assay type: functional, cell-based; settings: oocyte
T8 sequence (Q9QZX8 whole entry): T7 sequence (Q9QZX8 whole entry)

[11] = target: T3, Solute carrier organic anion transporter family member 1A4; experiment: as §2; assay type: functional, cell-based; settings: oocyte

Q: Which results are given for `CC(O)C[C@@H]1NC(=O)[C@@H]2Cc3c([nH]c4ccccc34)SC[C@@H](NC(=O)[C@H]([C@@H](C)O)NC(=O)[C@H](C)NC1=O)C(=O)N1C[C@H](O)C[C@H]1C(=O)N[C@@H](C)C(=O)N2` (stereo partly specified) [DEMETHYLPHALLOIN]?
A: Activity [1]: is not a substrate [-]; Activity [2]: is not a substrate [-]; Activity [3]: is not a substrate [-]; Activity [4]: is not a substrate [-]; Km [5]: 7.5 µM; Km [6]: 17 µM; Km [7]: 5.7 µM

Q: For `C[C@@H]1NC(=O)[C@H](C[C@@](C)(O)CO)NC(=O)[C@@H]2Cc3c([nH]c4ccccc34)SC[C@H](NC(=O)[C@@H]([C@H](C)O)NC1=O)C(=O)N1C[C@@H](O)C[C@H]1C(=O)N[C@@H](C)C(=O)N2` [PHALLOIDIN] (cyclo(A[dT]C[cisHyp]A[Trp(2-yl)][Leu(4R-OH,5-OH)]); thioether 3-6), which Activity [8] is on record?
A: The Activity was “is not an inhibitor [-]”.

Q: What about the Activity [9] of the same compound?
A: The Activity was “is not an inhibitor [-]”.

Q: What about the Activity [10] of the same compound?
A: The Activity was “inhibitor [+]”.

Q: What about the Activity [11] of the same compound?
A: The Activity was “is not an inhibitor [-]”.
